Laboratory results: patent US20080242681A1, “N-4-(6-(Hetero)Aryl-Pyrimidin-4-Ylaminophenyl)-Benzenesulfonamides as Kinase Inhibitors” (Altana Pharma AG, priority 2004, published 2008)
Where a name gives a salt, the structure may show the parent alone.

Experiments:
Assay type in all cases: biochemical
PKCθ = molecular target: T1, PKCθ (Homo sapiens, UniProt Q04759); test: Protein Kinase C θ assay (SPA); settings: human recombinant PKCθ from Sf21 insect cells, read-out: IC50, inhibition of PKC θ
T1 construct: made in house; host or cells: Sf21 insect cells
T1 sequence (Q04759 whole entry): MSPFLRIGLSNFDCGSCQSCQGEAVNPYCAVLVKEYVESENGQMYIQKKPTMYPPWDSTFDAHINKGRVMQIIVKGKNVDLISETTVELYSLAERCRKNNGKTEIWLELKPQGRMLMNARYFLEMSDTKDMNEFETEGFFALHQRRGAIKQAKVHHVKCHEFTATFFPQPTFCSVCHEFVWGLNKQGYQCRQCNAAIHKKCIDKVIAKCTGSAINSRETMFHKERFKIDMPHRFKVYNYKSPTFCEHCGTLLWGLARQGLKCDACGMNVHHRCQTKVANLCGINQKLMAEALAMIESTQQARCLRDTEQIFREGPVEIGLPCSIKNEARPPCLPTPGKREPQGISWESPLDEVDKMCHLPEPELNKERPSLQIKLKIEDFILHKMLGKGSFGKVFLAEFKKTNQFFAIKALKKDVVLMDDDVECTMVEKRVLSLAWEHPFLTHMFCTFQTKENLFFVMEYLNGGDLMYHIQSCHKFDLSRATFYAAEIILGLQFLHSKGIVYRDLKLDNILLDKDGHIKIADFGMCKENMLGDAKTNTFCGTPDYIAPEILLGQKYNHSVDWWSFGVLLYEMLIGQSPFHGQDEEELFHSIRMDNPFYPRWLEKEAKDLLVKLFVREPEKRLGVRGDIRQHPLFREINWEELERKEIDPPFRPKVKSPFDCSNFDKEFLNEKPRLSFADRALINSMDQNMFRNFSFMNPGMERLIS
Method: (§1) The compounds of formula 1 are tested for their activity on different protein kinases and PKC isoforms using a scintillation proximity assay (SPA, Amersham International plc). ^33P-labeled peptides are captured onto streptavidin coated yttrium silicate SPA beads. β-particles, emitted from the captured ^33P-labeled substrate in close proximity to the bead are able to excite the scintillant, resulting in the generation of quantifiable light. The assay is performed in a 96-well polystyrene microtiterplate (1450-514, Isoplates, Wallac, Turku, Finland). The reaction mixture (50 μl) contains 10 μl of the test compound together with 10 μl of the relevant kinase, diluted in the relevant dilution buffer, 5 μl of 10 μM phorbol myristate acetate (PMA) in H2O, 5 μl of 1.6 mM phosphatidylserine (Sigma-Aldrich Chemie GmbH, Stein-heim, Germany) in 20 mM Tris/HCL buffer pH 7.4, 5 μl of 0.3% BSA in H2O, 5 μl of 30 μM relevant substrate and 10 μl of 5 μM ATP and 0.1 μCi of ^33P-ATP (Amersham, Freiburg, Germany) in 200 mM Tris/HCL pH 7.5 and 200 mM MgCl2. Incubation is performed for 40 min at room temperature (RT) without shaking. Reaction is stopped by adding 150 μl of cold stop solution containing 10 mM ATP, 5 mM EGTA pH 7.5, 0.1% Triton X-100 and 0.2 mg streptavidin coated yttrium silicate SPA beads (Amersham, RPNQ 0012). The sealed plate is incubated for 60 min at RT. Thereafter the MTP is counted in a Microbeta Jet (Wallac). IC50 measurement is performed on a routine basis by incubation a serial dilution of inhibitor at concentrations ranging between 0.01 and 100 μM according to the method described above. Background values are the signals of the reaction mixture without addition of the relevant kinase and are subtracted from all values. 100% values are the signals of the reaction mixture without addition of inhibitors.
(§2) Dependent on the efficacy of the inhibitors In the various test systems, corresponding IC50 values are calculated from concentration-inhibition curves by nonlinear regression analysis using the program GraphPad Prism (GraphPad Software Inc., San Diego, Calif.).
Human recombinant nickel bead purified PKCθ from Sf21 insect cells is used under the assay conditions as described above (Section A.1). The enzyme is diluted in PKC dilution buffer containing 1 mM Hepes pH 7.4, 0.5 mM DTT and 0.001% Triton X-100. The kinase reaction is performed with the biotinylated PKCθ pseudosubstrate solved in H2O. The examples 8, 22, 46, 115, 118 and 161 inhibit PKC 9 in this assay with an IC50<1 μM.

PKCα = molecular target: T2, PKCα (Homo sapiens, UniProt P17252); test: Protein Kinase Cα assay (SPA); settings: human recombinant PKCα, biotinylated PKCα pseudosubstrate, 0.5 mM CaCl2, read-out: IC50, inhibition of PKCα
T2 construct: purchased Panvera (Invitrogen GmbH, Karlsruhe, Germany)
Method: as §1, §2
(§3) Human recombinant PKCα was obtained from Panvera (Invitrogen GmbH, Karlsruhe, Germany) and is used under the assay conditions as described above (Section A.1). The enzyme is diluted in PKC dilution buffer containing 1 mM Hepes pH 7.4, 0.5 mM DTT and 0.001% Triton X-100. The assay additionally contains 0.5 mM CaCl2. The kinase reaction is performed with the biotinylated PKCα pseudosubstrate solved in H2O.

PKCβ1 = molecular target: T3, PKCβ1 (Homo sapiens, UniProt P05771); test: Protein Kinase Cβ1 assay (SPA); settings: human recombinant PKCβ1, SPA, biotinylated PKCα pseudosubstrate, 0.5 mM CaCl2; read-out: IC50, inhibition of PKC β1
T3 construct: purchased Panvera
T3 sequence (P05771 whole entry): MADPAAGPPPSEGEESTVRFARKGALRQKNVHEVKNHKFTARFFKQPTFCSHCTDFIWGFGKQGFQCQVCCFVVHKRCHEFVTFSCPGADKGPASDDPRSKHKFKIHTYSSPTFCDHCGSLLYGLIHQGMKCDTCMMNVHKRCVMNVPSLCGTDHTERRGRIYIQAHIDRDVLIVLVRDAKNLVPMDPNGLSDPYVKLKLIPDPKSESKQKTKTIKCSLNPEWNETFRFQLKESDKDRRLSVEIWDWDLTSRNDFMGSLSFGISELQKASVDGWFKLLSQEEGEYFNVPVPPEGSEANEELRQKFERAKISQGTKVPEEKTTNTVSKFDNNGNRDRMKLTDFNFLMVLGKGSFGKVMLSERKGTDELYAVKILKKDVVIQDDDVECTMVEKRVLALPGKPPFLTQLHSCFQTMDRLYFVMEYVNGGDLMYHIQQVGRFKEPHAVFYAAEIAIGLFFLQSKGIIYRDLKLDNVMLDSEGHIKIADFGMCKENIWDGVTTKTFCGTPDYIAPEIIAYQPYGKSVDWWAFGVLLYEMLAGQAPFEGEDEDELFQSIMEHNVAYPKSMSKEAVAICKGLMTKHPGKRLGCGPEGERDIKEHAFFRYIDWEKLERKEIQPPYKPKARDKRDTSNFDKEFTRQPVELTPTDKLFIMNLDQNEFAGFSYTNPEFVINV
Method: as §1, §2
as §3, with “recombinant PKCβ1” for “recombinant PKCα”, “Panvera” for “Panvera (Invitrogen GmbH, Karlsruhe, Germany)”, “H2O. The examples 29, 45, 52, 128 and 139 inhibit PKC β1 in this assay with an IC50 between 2 and 40 μM.” for “H2O.”

SMILES	IC50 (PKCθ) [µM]	IC50 (PKCα) [µM]	other results
O=S(=O)(Nc1ccc(Nc2cc(-c3ccccc3)ncn2)cc1)c1c(F)cccc1F [Example 8, 2,6-Difluoro-N-[4-(6-phenyl-pyrimidin-4-ylamino)-phenyl]-benzenesulfonamide]	< 1		
O=S(=O)(Nc1ccc(Nc2cc(-c3cccc4ccccc34)ncn2)cc1)c1c(F)cccc1F [Example 16, 2,6-Difluoro-N-[4-(6-naphthalen-1-yl-pyrimidin-4-ylamino)-phenyl]-benzenesulfonamide]		1 to 18	
COc1ccc(-c2cc(Nc3ccc(NS(=O)(=O)c4ccccc4F)cc3)ncn2)cc1 [Example 29, 2-Fluoro-N-{4-[6-(4-methoxy-phenyl)-pyrimidin-4-ylamino]-phenyl}-benzenesulfonamide]			IC50 (PKCβ1): 2 to 40 µM
O=S(=O)(Nc1ccc(Nc2cc(-c3ccc(OCCN4CCOCC4)cc3)ncn2)cc1)c1c(F)cccc1F [Example 37, 2,6-Difluoro-N-(4-{6-[4-(2-morpholin-4-yl-ethoxy)-phenyl]-pyrimidin-4-ylamino}-phenyl)-benzenesulfonamide]		1 to 18	
COc1ccc(S(=O)(=O)Nc2ccc(Nc3cc(-c4ccc(OCCCN5CCOCC5)cc4)ncn3)cc2)cc1 [Example 45, 4-Methoxy-N-(4-{6-[4-(3-morpholin-4-yl-propoxy)-phenyl]-pyrimidin-4-ylamino}-phenyl)-benzenesulfonamide]			IC50 (PKCβ1): 2 to 40 µM
COc1ccc(S(=O)(=O)Nc2ccc(Nc3cc(-c4cccc(OCCCN5CCOCC5)c4)ncn3)cc2)cc1 [Example 46, 4-Methoxy-N-(4-{6-[3-(3-morpholin-4-yl-propoxy)-phenyl]-pyrimidin-4-ylamino}-phenyl)-benzenesulfonamide]	< 1		
CC1Cc2cc(-c3cc(Nc4ccc(NS(=O)(=O)c5c(F)cccc5F)cc4)ncn3)ccc2O1 (stereo not drawn) [Example 115, 2,6-Difluoro-N-{4-[6-(2-methyl-2,3-dihydro-benzofuran-5-yl)-pyrimidin-4-ylamino]-phenyl}-benzenesulfonamide]	< 1		
O=S(=O)(Nc1ccc(Nc2cc(-c3ccc4[nH]ccc4c3)ncn2)cc1)c1c(F)cccc1F [Example 119, 2,6-Difluoro-N-{4-[6-(1H-indol-5-yl)-pyrimidin-4-ylamino]-phenyl}-benzenesulfonamide]		1 to 18	
O=S(=O)(Nc1ccc(Nc2cc(-c3ccc4[nH]ccc4c3)ncn2)cc1)c1ccccc1F [Example 120, 2-Fluoro-N-{4-[6-(1H-indol-5-yl)-pyrimidin-4-ylamino]-phenyl}-benzenesulfonamide]		1 to 18	
CN(C)CCn1ccc2cc(-c3cc(Nc4ccc(NS(=O)(=O)c5c(F)cccc5F)cc4)ncn3)ccc21 [Example 139, N-(4-{6-[1-(2-Dimethylamino-ethyl)-1H-indol-5-yl]-pyrimidin-4-ylamino}-phenyl)-2,6-difluoro-benzenesulfonamide]			IC50 (PKCβ1): 2 to 40 µM
CN1CCN(CCn2ccc3cc(-c4cc(Nc5ccc(NS(=O)(=O)c6ccc(F)cc6F)cc5)ncn4)ccc32)CC1 [Example 150, 2,4-Difluoro-N-[4-(6-{1-[2-(4-methyl-piperazin-1-yl)-ethyl]-1H-indol-5-yl}-pyrimidin-4-ylamino)-phenyl]-benzenesulfonamide formic acid salt]		1 to 18	
O=S(=O)(Nc1ccc(Nc2cc(-c3ccc4c(ccn4CCN4CCCC4)c3)ncn2)cc1)c1ccc(F)c(Cl)c1 [Example 161, 3-Chloro-4-fluoro-N-(4-{6-[1-(2-pyrrolidin-1-yl-ethyl)-1H-indol-5-yl]pyrimidin-4-ylamino}-phenyl)-benzenesulfonamide formic acid salt]	< 1		
